Source: patent US20090312322A1, “Use of Oxindole Derivatives in the Treatment of Dementia Related Diseases, Alzheimer's Disease and Conditions Associated with Glycogen Synthase Kinase-3” (AstraZeneca AB, priority 2001, published 2009)

`COc1cc2c(C3C(=O)Nc4c(F)cccc43)ncnc2cc1OCCCN1CCOCC1.Cl.Cl` (stereo not shown) showed a melting point of 211 to 214 °C.
For `CNC(=O)c1ccc2c(c1)C(c1ncnc3cc(OCCCN4CCOCC4)ccc13)C(=O)N2` (stereo not shown) [Example 44, 3-[7-(3-Morpholin-4-yl-propoxy)-quinazolin-4-yl]-2-oxo-2,3-dihydro-1H-indole-5-carboxylic acid methylamide], the melting point was 195 to 198 °C.
Work on `CN(C)C(=O)c1ccc2c(c1)C(c1ncnc3cc(OCCCN4CCOCC4)ccc13)C(=O)N2` (stereo not shown) [Example 43, 3-[7-(3-Morpholin-4-yl-propoxy)quinazolin-4-yl]-2-oxo-2,3-dihydro-1H-indole-5-carboxylic acid dimethylamide] yielded a melting point of 167.5 to 168.7 °C.
For `CN1CCN(CCCOc2ccc3c(C4C(=O)Nc5ccc(C#N)cc54)ncnc3c2)CC1.Cl.Cl` (stereo not shown), the melting point was 200 °C (dec.).
